Laboratory results reported in patent publication US12491185B2, “Inhibitors of mPTP” (NRG Therapeutics Ltd, priority 2023, dated 2025).

Key:
mPTP [1] = assay: mPTP activity (Ca2+ retention) assay in isolated rat liver mitochondria; format: biochemical; conditions: examples tested by different contract research organisations, believed comparable
Procedure, shortened: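 pIC50 was taken from Fluo5N fluorescence at 10 min after a 75 μM CaCl2 bolus, scaled between DMSO (0%) and 5 μM cyclosporin A (100%). Compounds, ten half-log concentrations from 30 μM to 1 nM final, sat 10 min at RT with fresh female Sprague Dawley rat liver mitochondria energized by succinate plus rotenone.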

mPTP [2] = assay: mPTP activity assay in isolated rat brain mitochondria; format: biochemical; conditions: for mPTP Rat brain pIC50: fluorescence at 10 min timepoint
Procedure, shortened: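 Fresh brain mitochondria from female Sprague Dawley rats, digitonin-washed, in pH 7.4 mannitol/MOPS/KCl buffer with pyruvate, malate, ADP, oligomycin A and 2 μM Fluo5N. Preincubated with compounds 10 min at RT. Fluo5N fluorescence then read every 3 sec for 10 min on FLIPR Tetra.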

| Compound | mPTP Rat liver pIC50 (mPTP [1]) | mPTP Rat brain pIC50 (mPTP [2]) | mPTP rat brain mitochondria pIC50 (mPTP [2]; Fluo5N fluorescence at 10 min after 75 μM Ca2+) |
| --- | --- | --- | --- |
| Cn1nc(C(=O)NCC2(Cc3c(F)cccc3F)CCC2)[nH]c1=O [Example 21, N-((1-(2,6-difluorobenzyl)cyclobutyl)methyl)-1-methyl-5-oxo-4,5-dihydro-1H-1,2,4-triazole-3-carboxamide] | 6.09 | 7.63 |  |
| O=C(NC[C@H](Cc1cc(F)ccc1F)C1CC1)c1noc(=O)[nH]1 [Example 207] | 6.12 | 7.65 |  |
| Cn1nc(C(=O)NCC2(Cc3ccc(F)cc3F)CCOCC2)[nH]c1=O [Example 121] | 6.67 | 7.1 |  |
| CC[C@@H](Cc1ccc(F)cc1F)C(C)NC(=O)c1nn(C)c(=O)[nH]1 (single isomer, unassigned) [Example 224] | 4.52 | 5.04 |  |
| CC(c1ccc(F)cc1F)[C@@H](CNC(=O)c1nccc(=O)[nH]1)C1CC1 (single isomer, unassigned) [Example 225] | 5.47 | 6.66 |  |
| CC(CNC(=O)c1ncc(F)c(=O)[nH]1)(Cc1ccc(F)cc1)C1CC1 (single isomer, unassigned) [Example 262, N-[2-cyclopropyl-3-(4-fluorophenyl)-2-methylpropyl]-5-fluoro-4-oxo-3H-pyrimidine-2-carboxamide] | 6.00 | 7.45 |  |
| CC(CNC(=O)c1cc(O)no1)(Cc1ccc(F)cc1)C1CC1 (single isomer, unassigned) [Example 271] | 6.83 | 7.59 |  |
| C[C@](CNC(=O)c1ncc(Cl)c(=O)[nH]1)(Cc1ccc(F)cc1F)C1CC1 [Example 260, 5-chloro-N-[(2S)-2-cyclopropyl-3-(2,4-difluorophenyl)-2-methylpropyl]-4-oxo-3H-pyrimidine-2-carboxamide] | 5.78 | 7.50 |  |
| Cn1nc(C(=O)NCC(Cc2ccccc2)C2CC2)[nH]c1=O (centres unmarked) [Example 53, N-(2-cyclopropyl-3-phenylpropyl)-1-methyl-5-oxo-4,5-dihydro-1H-1,2,4-triazole-3-carboxamide] | 6.46 | 7.46 |  |
| O=C(NCC1(Cc2ccccc2)CCC1)c1cnn[nH]1 [Example 5, N-((1-benzylcyclobutyl)methyl)-1H-1,2,3-triazole-5-carboxamide] | 5.61 | 6.72 |  |
| Cn1nc(C(=O)N2CCC(C)(c3ccccc3)C2)[nH]c1=O (centres unmarked) [Reference Example 101, 2-methyl-5-(3-methyl-3-phenylpyrrolidine-1-carbonyl)-2,4-dihydro-3H-1,2,4-triazol-3-one] | <4.57 | <4.52 |  |
| O=C(NCC1(Cc2cccc(F)c2)CCC1)c1ccc(=O)[nH]n1 [Example 177] | 5.85 | 6.65 |  |
| CC[C@H](CNC(=O)c1nn(C)c(=O)[nH]1)Cc1ccc(F)cc1F [Example 98, (S)—N-(2-(2,4-Difluorobenzyl)butyl)-1-methyl-5-oxo-4,5-dihydro-1H-1,2,4-triazole-3-carboxamide] | 6.59 | 7.78 |  |
| C[C@@](CNC(=O)c1ncc(Cl)c(=O)[nH]1)(Cc1ccc(F)cc1F)C1CC1 [Example 259, 5-chloro-N-[(2R)-2-cyclopropyl-3-(2,4-difluorophenyl)-2-methylpropyl]-4-oxo-3H-pyrimidine-2-carboxamide] | 6.46 | 8.22 |  |
| CC(NC(=O)c1nn(C)c(=O)[nH]1)C(C)(C)Cc1ccccc1 (centres unmarked) [Example 38, N-(3,3-dimethyl-4-phenylbutan-2-yl)-1-methyl-5-oxo-4,5-dihydro-1H-1,2,4-triazole-3-carboxamide] | 6.14 | 7.30 |  |
| CC(CNC(=O)c1ncc(Cl)c(=O)[nH]1)(Cc1ccc(F)cc1)C1CC1 (single isomer, unassigned) [Example 263, 5-Chloro-N-[2-cyclopropyl-3-(4-fluorophenyl)-2-methylpropyl]-4-oxo-3H-pyrimidine-2-carboxamide] | 6.54 | 8.09 |  |
| Cc1cc(F)ccc1C[C@@H](CNC(=O)c1nn(C)c(=O)[nH]1)C1CC1 [Example 131] | 7.01 | 7.85 |  |
| CC(CNC(=O)c1noc(=O)[nH]1)(Cc1ccc(F)cc1)C1CC1 (single isomer, unassigned) [Example 275, N-(2-cyclopropyl-3-(4-fluorophenyl)-2-methylpropyl)-5-oxo-4,5-dihydro-1,2,4-oxadiazole-3-carboxamide] | 6.75 | 8.57 | highest activity |
| Cn1nc(C(=O)NC[C@H](Cc2cc(F)ccc2F)C2CC2)[nH]c1=O [Example 159] | 6.97 | 7.77 |  |
| Cc1cnc(C(=O)NCC(C)(Cc2ccc(F)cc2)C2CC2)[nH]c1=O (single isomer, unassigned) [Example 268] | 6.04 | 7.02 |  |
| CC[C@@H](Cc1ccc(F)cc1F)C(C)NC(=O)c1nn(C)c(=O)[nH]1 (single isomer, unassigned) [Example 223] | 6.90 | 7.60 |  |
| CC(CNC(=O)c1ncc(Cl)c(=O)[nH]1)(Cc1ccc(F)cc1)C1CC1 (single isomer, unassigned) [Example 264, 5-Chloro-N-[2-cyclopropyl-3-(4-fluorophenyl)-2-methylpropyl]-4-oxo-3H-pyrimidine-2-carboxamide] | 6.09 | 7.29 |  |
| O=C(NCC1(Cc2ccccn2)CCC1)c1cncc(=O)[nH]1 [Example 62, 6-oxo-N-((1-(pyridin-2-ylmethyl)cyclobutyl)methyl)-1,6-dihydropyrazine-2-carboxamide] | 4.85 | 5.16 |  |
| Cn1nc(C(=O)NCC2(Cc3ccc(F)cc3F)CCCO2)[nH]c1=O (single isomer, unassigned) [Example 230] | 6.18 | 6.40 |  |
| CC[C@H](CNC(=O)c1nn(C)c(=O)[nH]1)Cc1ccccc1 (single isomer, unassigned) [Example 54b] | 6.82 | 7.94 |  |
| Cn1nc(C(=O)NCC(C)(CO)Cc2ccccc2)[nH]c1=O (centres unmarked) [Example 41, N-(2-benzyl-3-hydroxy-2-methylpropyl)-1-methyl-5-oxo-4,5-dihydro-1H-1,2,4-triazole-3-carboxamide] | 5.25 | 6.38 |  |
| Cc1cnc(C(=O)NCC2(Cc3ccccc3)CCC2)[nH]c1=O [Example 9, N-((1-benzylcyclobutyl)methyl)-5-methyl-6-oxo-1,6-dihydropyrimidine-2-carboxamide] | 6.14 | 7.33 |  |
| Cn1nc(C(=O)NCC(C)(C)Cc2ccccc2)[nH]c1=O [Example 31, N-(2,2-dimethyl-3-phenylpropyl)-1-methyl-5-oxo-4,5-dihydro-1H-1,2,4-triazole-3-carboxamide] | 6.48 | 7.37 |  |
| CC(c1ccc(F)cc1F)[C@@H](CNC(=O)c1nn(C)c(=O)[nH]1)C1CC1 (some centres unmarked) [Example 238] | 5.15 | 6.21 |  |
